The text below walks through data of PubChem BioAssay AID328 (DTP/NCI, 2004).

Values joined by “and” are separate entries in the source; they are usually repeats but may differ in a detail not shown here. Identical values can stand only once. Inconclusive results and toxic doses are left out.

The assay deals with BDF1 mice, P388 leukemia ip, median survival T/C. Briefly: NCI In Vivo Anticancer Drug Screen. Data for tumor model P388 Leukemia (intraperitoneal) in B6D2F1 (BDF1) mice. The note with it: endpoint: median survival time, higher = longer survival. In a few lines:
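Antitumour effect was judged in vivo: survival in drug-treated mice, normalised to that of vehicle-dosed controls, gives the reported T/C.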

[1] abbreviates: dose: 1.25 mg/kg/injection, schedule: Q01DX009 (ip), vehicle: Klucel (hydroxypropylcellulose) (HPC).
Where [2] appears, read: dose: 100.0 mg/kg/injection, schedule: Q01DX009 (ip), vehicle: saline with Tween-80.
[3] abbreviates: dose: 100.0 mg/kg/injection, schedule: Q04DX003 (ip), vehicle: saline with Tween-80.
[4] abbreviates: dose: 200.0 mg/kg/injection, schedule: Q01DX009 (ip), vehicle: saline with Tween-80.
Where [5] appears, read: dose: 200.0 mg/kg/injection, schedule: Q04DX003 (ip), vehicle: saline with Tween-80.
The mark [6] stands for this setting: dose: 400.0 mg/kg/injection, schedule: Q01DX009 (ip), vehicle: saline with Tween-80.
Where [7] appears, read: dose: 400.0 mg/kg/injection, schedule: Q04DX003 (ip), vehicle: saline with Tween-80.
Setting [8] is: dose: 50.0 mg/kg/injection, schedule: Q01DX009 (ip), vehicle: saline.
Setting [9] is: dose: 100.0 mg/kg/injection, schedule: Q01DX009 (ip), vehicle: saline.
Where [10] appears, read: dose: 100.0 mg/kg/injection, schedule: Q04DX003 (ip), vehicle: other.
The mark [11] stands for this setting: dose: 200.0 mg/kg/injection, schedule: Q04DX003 (ip), vehicle: other.
Setting [12] is: dose: 400.0 mg/kg/injection, schedule: Q04DX003 (ip), vehicle: other.
[13] abbreviates: dose: 50.0 mg/kg/injection, schedule: Q01DX009 (ip), vehicle: saline with Tween-80.

Regarding `c1ccc([C@H]2CN3CCSC3=N2)cc1`, the T/C is 100 % of control (dose: 0.15 mg/kg/injection, schedule: Q01DX009 (ip), vehicle: saline); 100 % of control (dose: 0.31 mg/kg/injection, schedule: Q01DX009 (ip), vehicle: saline); 100 % of control and 122 % of control (dose: 0.63 mg/kg/injection, schedule: Q01DX009 (ip), vehicle: saline); 97 % of control and 104 % of control (dose: 1.25 mg/kg/injection, schedule: Q01DX009 (ip), vehicle: saline); 99 % of control and 104 % of control (dose: 2.5 mg/kg/injection, schedule: Q01DX009 (ip), vehicle: saline); 100 % of control (dose: 5.0 mg/kg/injection, schedule: Q01DX009 (ip), vehicle: saline). Further, the T/C was 94 % of control and 100 % of control (dose: 10.0 mg/kg/injection, schedule: Q01DX009 (ip), vehicle: saline); 94 % of control and 100 % of control (dose: 20.0 mg/kg/injection, schedule: Q01DX009 (ip), vehicle: saline).
On to `CC1CN1P(=S)(N1CC1C)N1CC1C` (stereo not drawn), for which the T/C is 104 % of control (dose: 1.25 mg/kg/injection, schedule: Q01DX010 (ip), vehicle: saline); 104 % of control (dose: 2.5 mg/kg/injection, schedule: Q01DX010 (ip), vehicle: saline); 104 % of control (dose: 5.0 mg/kg/injection, schedule: Q01DX010 (ip), vehicle: saline); 104 % of control (dose: 10.0 mg/kg/injection, schedule: Q01DX010 (ip), vehicle: saline).
As to `CC1=CC23C(COC(=O)C24CO4)C(C(=O)O)=CC3C1C` (stereo not drawn), the T/C runs as follows: (dose: 0.31 mg/kg/injection, schedule: Q01DX009 (ip), vehicle: Klucel (hydroxypropylcellulose) (HPC)) 105 % of control; (dose: 0.63 mg/kg/injection, schedule: Q01DX009 (ip), vehicle: Klucel (hydroxypropylcellulose) (HPC)) 113 % of control; under setting [1], 102 % of control and 117 % of control.
In the case of `CC12CCC(C)(O)C(CC3=C1CCc1ccccc13)C2=O` (stereo not drawn), the T/C is, setting by setting: (dose: 75.0 mg/kg/injection, schedule: Q04DX003 (ip), vehicle: saline) 100 % of control; (dose: 150.0 mg/kg/injection, schedule: Q04DX003 (ip), vehicle: saline) 91 % of control; (dose: 300.0 mg/kg/injection, schedule: Q04DX003 (ip), vehicle: saline) 95 % of control.
For the compound `COB1OB(OC)OB(OC)O1`, the T/C under setting [2] is 104 % of control; the T/C under setting [3] is 100 % of control; the T/C under setting [4] was 100 % of control; the T/C under setting [5] is 100 % of control; the T/C under setting [6] is 109 % of control; the T/C under setting [7] was 100 % of control.
As to `Cn1cc(S(C)=O)c(=O)c2ccccc21` (stereo not drawn), the T/C by setting is: under setting [8], 99 % of control; under setting [9], 99 % of control; (dose: 200.0 mg/kg/injection, schedule: Q01DX009 (ip), vehicle: saline) 111 % of control.
With `COc1cccc(C(=O)CC(O)(C(F)(F)F)C(F)(F)F)c1`, the T/C (dose: 100.0 mg/kg/injection, schedule: Q01DX009 (ip), vehicle: other) is 91 % of control; the T/C under setting [10] is 100 % of control; the T/C (dose: 200.0 mg/kg/injection, schedule: Q01DX009 (ip), vehicle: other) is 95 % of control; the T/C under setting [11] is 100 % of control; the T/C (dose: 400.0 mg/kg/injection, schedule: Q01DX009 (ip), vehicle: other) was 104 % of control; the T/C under setting [12] is 100 % of control.
As to `O=C1OC(Cc2ccccc2)(c2ccccc2)c2ccccc21` (stereo not drawn), the T/C under setting [13] is 90 % of control and the T/C under setting [2] is 90 % of control.
As to `NC(N)=N/N=C/C(Cl)Cl`, the T/C (dose: 25.0 mg/kg/injection, schedule: Q01DX009 (ip), vehicle: saline) was 95 % of control and 100 % of control; the T/C under setting [8] is 104 % of control; the T/C under setting [9] is 100 % of control and 109 % of control.
In the case of `CC(C)=CCOc1ccc(C(=O)/C=C/c2ccccc2)c(O)c1`, the T/C is, setting by setting: under setting [1], 108 % of control; (dose: 2.5 mg/kg/injection, schedule: Q01DX009 (ip), vehicle: Klucel (hydroxypropylcellulose) (HPC)) 101 % of control; (dose: 5.0 mg/kg/injection, schedule: Q01DX009 (ip), vehicle: Klucel (hydroxypropylcellulose) (HPC)) 107 % of control; (dose: 10.0 mg/kg/injection, schedule: Q01DX009 (ip), vehicle: Klucel (hydroxypropylcellulose) (HPC)) 91 % of control; (dose: 20.0 mg/kg/injection, schedule: Q01DX009 (ip), vehicle: Klucel (hydroxypropylcellulose) (HPC)) 104 % of control; (dose: 40.0 mg/kg/injection, schedule: Q01DX009 (ip), vehicle: Klucel (hydroxypropylcellulose) (HPC)) 89 % of control.
With `O=C1OC(c2ccc(Cl)cc2)=N/C1=C\c1ccccc1`, the T/C (dose: 100.0 mg/kg/injection, schedule: Q01DX001 (ip), vehicle: Klucel (hydroxypropylcellulose) (HPC)) is 95 % of control; the T/C (dose: 100.0 mg/kg/injection, schedule: Q04DX003 (ip), vehicle: Klucel (hydroxypropylcellulose) (HPC)) is 86 % of control; the T/C (dose: 200.0 mg/kg/injection, schedule: Q01DX001 (ip), vehicle: Klucel (hydroxypropylcellulose) (HPC)) was 95 % of control; the T/C (dose: 200.0 mg/kg/injection, schedule: Q04DX003 (ip), vehicle: Klucel (hydroxypropylcellulose) (HPC)) is 90 % of control; the T/C (dose: 400.0 mg/kg/injection, schedule: Q01DX001 (ip), vehicle: Klucel (hydroxypropylcellulose) (HPC)) is 100 % of control; the T/C (dose: 400.0 mg/kg/injection, schedule: Q04DX003 (ip), vehicle: Klucel (hydroxypropylcellulose) (HPC)) is 95 % of control.
As to `Cc1ccc(S(=O)(=O)Nc2ccc([N+](=O)[O-])cc2[N+](=O)[O-])cc1`, the T/C (dose: 25.0 mg/kg/injection, schedule: Q01DX009 (ip), vehicle: saline with Tween-80) was 95 % of control and the T/C under setting [13] is 92 % of control.
With `CCOC(=O)C(C)(C)CN(CC(C)(C)C(=O)OCC)c1ccccc1`, the T/C reads like this: under setting [3], 115 % of control; under setting [5], 115 % of control; under setting [7], 120 % of control.
As for `C/C=C1\CCC2C(=C1C)CC1C2CC=C2CC(OC(C)=O)CCC21C` (stereo not drawn), the T/C by setting is: (dose: 100.0 mg/kg/injection, schedule: Q01DX009 (ip), vehicle: Klucel (hydroxypropylcellulose) (HPC)) 115 % of control; (dose: 200.0 mg/kg/injection, schedule: Q01DX009 (ip), vehicle: Klucel (hydroxypropylcellulose) (HPC)) 120 % of control; (dose: 400.0 mg/kg/injection, schedule: Q01DX009 (ip), vehicle: Klucel (hydroxypropylcellulose) (HPC)) 105 % of control.
Turning to `C[N+]1(C)N=C([O-])N(c2ccc([N+](=O)[O-])cc2)C1=O`, the T/C runs as follows: under setting [13], 90 % of control; under setting [2], 99 % of control.
As for `O=C1CC2C3Nc4ccccc4C3CCN2C2=C1CC(OC(=O)c1ccccc1)CC2` (stereo not drawn), the T/C by setting is: under setting [13], 104 % of control; under setting [2], 104 % of control; under setting [4], 86 % of control.
Take `CC(=O)N1c2cc3ccccc3cc2N(C(C)=O)c2cc3ccccc3cc21`: the T/C by setting is: under setting [2], 102 % of control; under setting [4], 97 % of control; under setting [6], 117 % of control.
On to `Cc1ccc([N+](=O)[O-])cc1NC(=O)Oc1ccccc1`, for which the T/C under setting [10] is 92 % of control, the T/C under setting [11] was 96 % of control and the T/C under setting [12] is 96 % of control.
With `N#CC12CC3CC(CC(C3)C1)C2`, the T/C runs as follows: (dose: 5.0 mg/kg/injection, schedule: Q01DX009 (ip), vehicle: saline with Tween-80) 100 % of control; (dose: 20.0 mg/kg/injection, schedule: Q01DX009 (ip), vehicle: saline with Tween-80) 88 % of control.
`OC(CCl)CN1CC[N+]2(CC1)CC[N+]1(CCN(CC(O)CCl)CC1)CC2` (stereo not drawn): the T/C is, setting by setting: (dose: 11.25 mg/kg/injection, schedule: Q01DX009 (ip), vehicle: water) 114 % of control; (dose: 27.5 mg/kg/injection, schedule: Q01DX009 (ip), vehicle: water) 100 % of control; (dose: 45.0 mg/kg/injection, schedule: Q01DX009 (ip), vehicle: water) 115 % of control; (dose: 200.0 mg/kg/injection, schedule: Q01DX009 (ip), vehicle: water) 153 % of control and 159 % of control.
Consider `CN(C)c1ccc(C(O)(Cc2cccnc2)c2ccc(N(C)C)cc2)cc1`, for which the T/C is 113 % of control under setting [13], 100 % of control under setting [2] and 96 % of control under setting [4].
